The text below walks through data of patent US20180280377A1, “Imidazo[4,5-c]quinolin-2-one Compounds and Their Use in Treating Cancer” (ASTRAZENECA AB, priority 2015, published 2018).

Holding throughout (format): cell-based
One assay concerns the target PI3Kα (Homo sapiens, UniProt P42336). As to the kind of experiment: PI3K cellular potency assay (phospho-Akt T308 in BT474 cells, ELISA). The following applies: 2 h, phospho-Akt (T308); Table 2; read-out: Assay c) PI3Kα Cell IC50. As to the method:
(§1) The following assays were used to measure the effects of the compounds of the present invention: a) ATM cellular potency assay; b) PI3K cellular potency assay; c) mTOR cellular potency assay; d) ATR cellular potency assay. During the description of the assays, generally: • i. […] IC50 values were calculated using a smart fitting model in Genedata.
This assay was used to measure PI3K-α inhibition in cells. PDK1 was identified as the upstream activation loop kinase of protein kinase B (Akt1), which is essential for the activation of PKB. Activation of the lipid kinase phosphoinositide 3 kinase (PI3K) is critical for the activation of PKB by PDK1.
Following ligand stimulation of receptor tyrosine kinases, PI3K is activated, which converts PIP2 to PIP3, which is bound by the PH domain of PDK1 resulting in recruitment of PDK1 to the plasma membrane where it phosphorylates AKT at Thr308 in the activation loop.
The aim of this cell-based mode of action assay is to identify compounds that inhibit PDK activity or recruitment of PDK1 to membrane by inhibiting PI3K activity. Phosphorylation of phospho-Akt (T308) in BT474c cells following treatment with compounds for 2 h is a direct measure of PDK1 and indirect measure of PI3K activity.
The following morning compounds in 100% DMSO were added to assay plates by acoustic dispensing.
Plates were incubated over night at 4° C. The next day the plates were washed with PBS buffer containing 0.05% Tween 20 and further incubated with a mouse monoclonal anti-phospho AKT T308 for 2 h. Plates were washed again as above before addition of a horse anti-mouse-HRP conjugated secondary antibody. […] The developed fluorescent product was stopped after 60 minutes by addition of Stop solution to the wells.
A general note: In an ELISA, binding on a coated surface is turned into a signal by an enzyme label.

The target in another assay is T1, ATM (Homo sapiens, UniProt Q13315).
T1 construct: endogenous in cells; host or cells: HT29 cells (ECACC #85061109)
The assay is described as follows: ATM cellular potency assay (pATM Ser1981 in irradiated HT29 cells). The following applies: 1 h compound, X-ray irradiation, pATM (Ser1981); Table 2; read-out: Assay a) ATM Cell IC50. As to the method: as §1
Most ATM molecules in the cell are rapidly phosphorylated on this site after doses of radiation as low as 0.5 Gy, and binding of a phosphospecific antibody is detectable after the introduction of only a few DNA double-strand breaks in the cell.
The rationale of the pATM assay is to identify inhibitors of ATM in cells. HT29 cells are incubated with test compounds for 1 h prior to X-ray-irradiation. 1 h later the cells are fixed and stained for pATM (Ser1981). The fluorescence is read on the arrayscan imaging platform.
The following morning compounds of Formula (I) in 100% DMSO were added to assay plates by acoustic dispensing. After 1 h incubation at 37° C. and 5% CO2, plates (up to 6 at a time) were irradiated using the X-RAD 320 instrument (PXi) with equivalent to 600 cGy. Plates were returned to the incubator for a further 1 h. Then cells were fixed by adding 20 μl of 3.7% formaldehyde in PBS solution and incubating for 20 minutes at r.t. before being washed with 50μl/well PBS, using a Biotek EL405 plate washer. Then 20 μl of 0.1% Triton X100 in PBS was added and incubated for 20 minutes at r.t., to permeabalise cells. Then the plates were washed once with 50 μl/well PBS, using a Biotek EL405 plate washer.
After 1 h incubation at r.t., the plates were washed three times with 50 μl/well PBS, using a Biotek EL405 plate washer, and plates were sealed and kept in PBS at 4° C. until read. Plates were read using an ArrayScan VTI instrument, using an XF53 filter with 10× objective.

The target of another assay is T2, ATR (Homo sapiens, UniProt Q13535).
T2 construct: endogenous in cells; host or cells: HT29 cells (ECACC #85061109)
T2 sequence (Q13535 whole entry): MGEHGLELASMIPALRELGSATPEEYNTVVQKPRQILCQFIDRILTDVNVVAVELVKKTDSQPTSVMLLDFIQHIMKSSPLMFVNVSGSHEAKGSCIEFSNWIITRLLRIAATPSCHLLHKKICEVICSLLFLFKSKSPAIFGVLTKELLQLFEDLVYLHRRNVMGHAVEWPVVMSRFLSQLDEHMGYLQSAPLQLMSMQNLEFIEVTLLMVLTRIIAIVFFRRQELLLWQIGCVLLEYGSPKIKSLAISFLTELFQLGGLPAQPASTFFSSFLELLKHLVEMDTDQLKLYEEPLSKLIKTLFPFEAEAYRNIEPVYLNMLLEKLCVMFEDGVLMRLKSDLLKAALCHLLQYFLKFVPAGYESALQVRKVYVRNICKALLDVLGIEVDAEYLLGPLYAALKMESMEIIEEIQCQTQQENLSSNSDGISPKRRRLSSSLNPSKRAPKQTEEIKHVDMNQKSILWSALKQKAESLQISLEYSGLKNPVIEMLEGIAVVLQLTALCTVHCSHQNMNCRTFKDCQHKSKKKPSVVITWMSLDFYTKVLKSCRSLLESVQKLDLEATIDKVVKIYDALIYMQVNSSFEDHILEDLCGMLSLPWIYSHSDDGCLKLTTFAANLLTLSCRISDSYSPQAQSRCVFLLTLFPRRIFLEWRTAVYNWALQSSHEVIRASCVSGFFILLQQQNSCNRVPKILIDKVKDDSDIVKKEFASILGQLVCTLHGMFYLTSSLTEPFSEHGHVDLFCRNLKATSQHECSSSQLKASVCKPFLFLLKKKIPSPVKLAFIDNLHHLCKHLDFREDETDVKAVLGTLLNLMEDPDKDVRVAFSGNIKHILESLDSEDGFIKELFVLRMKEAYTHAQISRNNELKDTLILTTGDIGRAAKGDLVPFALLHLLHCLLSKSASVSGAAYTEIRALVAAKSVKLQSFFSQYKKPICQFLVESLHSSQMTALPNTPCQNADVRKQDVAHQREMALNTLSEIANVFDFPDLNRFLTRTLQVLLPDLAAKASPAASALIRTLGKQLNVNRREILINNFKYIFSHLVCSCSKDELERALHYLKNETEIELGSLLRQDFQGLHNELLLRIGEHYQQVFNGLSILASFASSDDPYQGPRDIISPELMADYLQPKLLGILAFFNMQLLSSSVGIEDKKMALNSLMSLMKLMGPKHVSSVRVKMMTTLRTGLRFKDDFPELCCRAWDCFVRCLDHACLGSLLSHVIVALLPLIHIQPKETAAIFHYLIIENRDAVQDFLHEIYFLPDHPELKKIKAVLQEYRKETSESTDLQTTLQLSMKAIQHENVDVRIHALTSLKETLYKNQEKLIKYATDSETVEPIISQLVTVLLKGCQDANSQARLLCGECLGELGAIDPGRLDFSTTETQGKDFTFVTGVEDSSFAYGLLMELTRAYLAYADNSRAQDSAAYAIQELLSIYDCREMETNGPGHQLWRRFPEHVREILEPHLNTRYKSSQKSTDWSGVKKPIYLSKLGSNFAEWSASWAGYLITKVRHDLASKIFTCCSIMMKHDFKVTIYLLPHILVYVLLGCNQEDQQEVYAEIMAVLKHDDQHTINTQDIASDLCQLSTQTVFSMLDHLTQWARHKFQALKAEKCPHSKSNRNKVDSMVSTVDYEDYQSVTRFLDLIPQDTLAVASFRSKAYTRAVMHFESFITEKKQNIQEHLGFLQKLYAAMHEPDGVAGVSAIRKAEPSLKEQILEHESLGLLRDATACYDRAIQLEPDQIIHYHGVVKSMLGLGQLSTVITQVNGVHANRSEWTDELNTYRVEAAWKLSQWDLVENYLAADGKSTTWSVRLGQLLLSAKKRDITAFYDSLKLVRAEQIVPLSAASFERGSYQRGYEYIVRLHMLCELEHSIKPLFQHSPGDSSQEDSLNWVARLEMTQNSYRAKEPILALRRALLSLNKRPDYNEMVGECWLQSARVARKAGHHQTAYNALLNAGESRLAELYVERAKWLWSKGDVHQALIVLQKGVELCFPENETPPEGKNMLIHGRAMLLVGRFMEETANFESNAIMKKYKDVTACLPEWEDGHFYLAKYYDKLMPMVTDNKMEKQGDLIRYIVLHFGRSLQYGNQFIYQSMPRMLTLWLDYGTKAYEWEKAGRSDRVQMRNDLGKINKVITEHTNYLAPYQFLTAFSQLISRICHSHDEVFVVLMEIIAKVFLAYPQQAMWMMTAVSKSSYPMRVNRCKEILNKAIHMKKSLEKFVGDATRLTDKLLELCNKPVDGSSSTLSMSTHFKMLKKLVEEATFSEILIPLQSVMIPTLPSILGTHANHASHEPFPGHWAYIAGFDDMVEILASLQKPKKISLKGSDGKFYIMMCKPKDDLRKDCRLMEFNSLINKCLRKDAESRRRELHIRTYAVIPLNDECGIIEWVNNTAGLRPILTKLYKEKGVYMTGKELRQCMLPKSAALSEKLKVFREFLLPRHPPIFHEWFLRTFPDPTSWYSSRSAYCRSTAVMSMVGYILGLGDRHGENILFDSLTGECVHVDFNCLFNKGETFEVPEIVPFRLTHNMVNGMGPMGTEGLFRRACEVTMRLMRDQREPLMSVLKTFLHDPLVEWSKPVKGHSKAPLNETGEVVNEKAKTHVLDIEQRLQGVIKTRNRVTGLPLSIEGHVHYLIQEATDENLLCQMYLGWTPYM
T2 sequence (Q8WXE1 whole entry partner): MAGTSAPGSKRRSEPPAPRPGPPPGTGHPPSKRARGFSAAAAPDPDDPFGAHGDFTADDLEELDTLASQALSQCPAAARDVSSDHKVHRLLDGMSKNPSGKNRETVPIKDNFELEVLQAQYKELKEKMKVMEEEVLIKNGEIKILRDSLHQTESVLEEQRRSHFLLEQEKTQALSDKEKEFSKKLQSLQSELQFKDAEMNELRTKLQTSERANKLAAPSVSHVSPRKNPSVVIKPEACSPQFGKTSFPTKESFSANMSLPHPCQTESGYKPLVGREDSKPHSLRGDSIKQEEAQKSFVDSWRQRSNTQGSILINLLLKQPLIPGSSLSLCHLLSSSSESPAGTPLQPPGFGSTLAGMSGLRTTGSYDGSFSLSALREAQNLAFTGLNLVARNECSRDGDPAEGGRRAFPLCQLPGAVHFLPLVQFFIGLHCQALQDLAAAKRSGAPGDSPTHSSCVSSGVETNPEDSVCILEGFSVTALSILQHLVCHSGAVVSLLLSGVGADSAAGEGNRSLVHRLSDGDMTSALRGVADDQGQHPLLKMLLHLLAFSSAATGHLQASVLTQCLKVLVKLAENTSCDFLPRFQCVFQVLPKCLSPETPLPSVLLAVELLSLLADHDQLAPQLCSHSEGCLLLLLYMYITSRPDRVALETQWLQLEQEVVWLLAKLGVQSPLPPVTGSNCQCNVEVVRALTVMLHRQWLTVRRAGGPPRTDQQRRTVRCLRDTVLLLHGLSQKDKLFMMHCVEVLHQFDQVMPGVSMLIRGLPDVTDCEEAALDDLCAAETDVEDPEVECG
As to the kind of experiment: ATR cellular potency assay (pChk1 Ser345 in HT29 cells after 4NQO). The following applies: pChk1 (Ser 345); Table 2; read-out: Assay b) ATR Cell IC50. As to the method:
as §1
ATR is a PI3-kinase-related kinase which phosphorylates multiple substrates on serine or threonine residues in response to DNA damage during or replication blocks. Chk1, a downstream protein kinase of ATR, plays a key role in DNA damage checkpoint control. Activation of Chk1 involves phosphorylation of Ser317 and Ser345 (the latter regarded as the preferential target for phosphorylation/activation by ATR).
The following morning compound of Formula (I) in 100% DMSO were added to assay plates by acoustic dispensing. After 1 h incubation at 37° C. and 5% CO2, 40 nl of 3 mM 4NQO in 100% DMSO was added to all wells by acoustic dispensing, except minimum control wells which were left untreated with 4NQO to generate a null response control. Plates were returned to the incubator for a further 1 h. Then cells were fixed by adding 20 μl of 3.7% formaldehyde in PBS solution and incubating for 20 mins at r.t. Then […] of 0.1% Triton X100 in PBS was added and incubated for 10 minutes at r.t., to permeabalise cells. Then the plates were washed once with […] PBS, using a Biotek EL405 plate washer.
After 2 h incubation at r.t., the plates were washed three times with […] PBS, using a Biotek EL405 plate washer, and plates were then sealed with black plate seals until read. Plates were read using an ArrayScan VTI instrument, using an XF53 filter with 10× objective.

`CC(C)n1c(=O)n(C)c2cnc3ccc(-c4ccc(N5CC[C@@H](N(C)C)C5)nc4)cc3c21` [Example 1, 8-[6-[(3R)-3-(Dimethylamino)pyrrolidin-1-yl]-3-pyridyl]-1-isopropyl-3-methyl-imidazo[4,5-c]quinolin-2-one]: the IC50 on PI3Kα was determined as 0.47 µM.

Consider `CN(C)[C@@H]1CCN(c2ccc(-c3ccc4ncc5c(c4c3)n([C@H]3CCCOC3)c(=O)n5C)cn2)C1` [Example 9], for which the IC50 stood at 0.000842 µM on ATM and 2.48 µM on ATR.

Regarding `CO[C@H]1C[C@@H](n2c(=O)n(C)c3cnc4ccc(-c5ccc(N6CC[C@@H](N(C)C)C6)nc5)cc4c32)C1` [Example 10], the IC50 at ATM was 0.000752 µM; on ATR, 3.21 µM.

With `CO[C@H]1C[C@H](n2c(=O)n(C)c3cnc4ccc(-c5ccc(N6CC[C@@H](N(C)C)C6)nc5)cc4c32)C1` [Example 11], the IC50 was 0.00077 µM at ATM and 1.08 µM at ATR.

In the case of `CO[C@H]1CC[C@H](n2c(=O)n(C)c3cnc4ccc(-c5ccc(N6CC[C@@H](N(C)C)C6)nc5)cc4c32)CC1` [Example 12], the figures for the IC50 on ATM and at ATR were 0.000434 µM and 0.223 µM, respectively.

As to `CN(C)[C@@H]1CCN(c2ccc(-c3cc4c(cc3F)ncc3c4n([C@H]4CCCOC4)c(=O)n3C)cn2)C1` [Example 15], the figures for the IC50 at ATM and on ATR were 0.00146 µM and more than 30 µM, respectively.

`CN(C)[C@H]1CCN(c2ccc(-c3ccc4ncc5c(c4c3)n([C@@H]3CCCOC3)c(=O)n5C)cn2)C1` [Example 16]: the IC50 was 0.0186 µM at ATM and more than 22.3 µM at ATR.

Take `CN(C)[C@H]1CCN(c2ccc(-c3ccc4ncc5c(c4c3)n([C@H]3CCCOC3)c(=O)n5C)cn2)C1` [Example 17]: the IC50 at ATM is 0.0137 µM; on ATR, more than 30 µM.

With `CO[C@H]1C[C@@H](n2c(=O)n(C)c3cnc4ccc(-c5ccc(N6CC[C@H](N(C)C)C6)nc5)cc4c32)C1` [Example 18], the results for the IC50 at ATM and on ATR were 0.0127 µM and 17.5 µM, respectively.

Take `CN(C)[C@H]1CCN(c2ccc(-c3cc4c(cc3F)ncc3c4n([C@@H]4CCCOC4)c(=O)n3C)cn2)C1` [Example 19]: the figures for the IC50 on ATM and at ATR were 0.0634 µM and more than 30 µM, respectively.

For the compound `CO[C@H]1C[C@@H](n2c(=O)n(C)c3cnc4cc(F)c(-c5ccc(N6CC[C@H](N(C)C)C6)nc5)cc4c32)C1` [Example 21], the values for the 50% inhibitory concentration (IC50) at ATM and at ATR were 0.0258 µM and more than 30 µM, respectively.

Consider `CN(C)C1CN(c2ccc(-c3ccc4ncc5c(c4c3)n([C@H]3CCCOC3)c(=O)n5C)cn2)C1` [Example 24, 8-[6-[3-(dimethylamino)azetidin-1-yl]-3-pyridyl]-3-methyl-1-[(3S)-tetrahydropyran-3-yl]imidazo[4,5-c]quinolin-2-one], for which the values for the IC50 on ATM and on ATR were 0.0166 µM and 9.23 µM, respectively.

In the case of `CO[C@H]1CC[C@H](n2c(=O)n(C)c3cnc4ccc(-c5ccc(N6CC(N(C)C)C6)nc5)cc4c32)CC1` [Example 25, 8-[6-[3-(dimethylamino)azetidin-1-yl]-3-pyridyl]-1-(trans-4-methoxycyclohexyl)-3-methyl-imidazo[4,5-c]quinolin-2-one], the IC50 on ATM turned out to be 0.00661 µM; at ATR, 2.52 µM.

Consider `CN(C)C1CN(c2ccc(-c3ccc4ncc5c(c4c3)n(C3CCC3)c(=O)n5C)cn2)C1` [Example 26, 1-cyclobutyl-8-[6-[3-(dimethylamino)azetidin-1-yl]-3-pyridyl]-3-methyl-imidazo[4,5-c]quinolin-2-one], for which the concentration for half-maximal inhibition (IC50) on ATM was 0.00929 µM; on ATR, more than 20.1 µM.

For the compound `CN(C)C1CN(c2ccc(-c3ccc4ncc5c(c4c3)n([C@@H]3CCCOC3)c(=O)n5C)cn2)C1` [Example 27, 8-[6-[3-(dimethylamino)azetidin-1-yl]-3-pyridyl]-3-methyl-1-[(3R)-tetrahydropyran-3-yl]imidazo[4,5-c]quinolin-2-one], the IC50 at ATM was 0.0059 µM; on ATR it was 5.95 µM.

Consider `CN(C)C1CN(c2ccc(-c3ccc4ncc5c(c4c3)n(C3CCOCC3)c(=O)n5C)cn2)C1` [Example 28, 8-[6-[3-(dimethylamino)azetidin-1-yl]-3-pyridyl]-3-methyl-1-tetrahydropyran-4-yl-imidazo[4,5-c]quinolin-2-one], for which the IC50 on ATM turned out to be 0.0195 µM; at ATR, 18.8 µM.

Regarding `CN(C)C1CCN(c2ccc(-c3ccc4ncc5c(c4c3)n(C3CCC3)c(=O)n5C)cn2)CC1` [Example 37, 1-cyclobutyl-8-[6-[4-(dimethylamino)-1-piperidyl]-3-pyridyl]-3-methyl-imidazo[4,5-c]quinolin-2-one], the values for the IC50 on ATM and on ATR were 0.000911 µM and more than 30 µM, respectively.

On to `CN(C)C1CCN(c2ccc(-c3ccc4ncc5c(c4c3)n(C3COC3)c(=O)n5C)cn2)CC1` [Example 38, 8-[6-[4-(dimethylamino)-1-piperidyl]-3-pyridyl]-3-methyl-1-(oxetan-3-yl)imidazo[4,5-c]quinolin-2-one], for which the IC50 was 0.00391 µM at ATM and more than 30 µM on ATR.

Regarding `CN(C)C1CCN(c2ccc(-c3cc4c(cc3F)ncc3c4n([C@H]4CCCOC4)c(=O)n3C)cn2)CC1` [Example 41, 8-[6-[4-(dimethylamino)-1-piperidyl]-3-pyridyl]-7-fluoro-3-methyl-1-[(3S)-tetrahydropyran-3-yl]imidazo[4,5-c]quinolin-2-one], the results for the IC50 at ATM and at ATR were 0.00202 µM and more than 30 µM, respectively.

Turning to `CO[C@H]1C[C@@H](n2c(=O)n(C)c3cnc4cc(F)c(-c5ccc(N6CCC[C@@H](N(C)C)C6)nc5)cc4c32)C1` [Example 43, 8-[6-[(3R)-3-(dimethylamino)-1-piperidyl]-3-pyridyl]-7-fluoro-1-(cis-3-methoxycyclobutyl)-3-methyl-imidazo[4,5-c]quinolin-2-one], the IC50 at ATM is 0.072 µM; on ATR, more than 30 µM.

As to `CNC1CCN(c2ccc(-c3ccc4ncc5c(c4c3)n([C@@H]3CCCOC3)c(=O)n5C)cn2)CC1` [Example 58, 3-methyl-8-[6-[4-(methylamino)-1-piperidyl]-3-pyridyl]-1-[(3R)-tetrahydropyran-3-yl]imidazo[4,5-c]quinolin-2-one], the values for the 50% inhibitory concentration (IC50) at ATM and on ATR were 0.00225 µM and more than 21.8 µM, respectively.

`CNC1CCN(c2ccc(-c3ccc4ncc5c(c4c3)n([C@H]3CCCOC3)c(=O)n5C)cn2)CC1` [Example 59, 3-methyl-8-[6-[4-(methylamino)-1-piperidyl]-3-pyridyl]-1-[(3S)-tetrahydropyran-3-yl]imidazo[4,5-c]quinolin-2-one]: the values for the IC50 on ATM and on ATR were 0.00138 µM and more than 30 µM, respectively.

As for `CNC1CCN(c2ccc(-c3ccc4ncc5c(c4c3)n(C3CCOCC3)c(=O)n5C)cn2)CC1` [Example 61, 3-methyl-8-[6-[4-(methylamino)-1-piperidyl]-3-pyridyl]-1-tetrahydropyran-4-yl-imidazo[4,5-c]quinolin-2-one], the IC50 was 0.000753 µM on ATM and more than 25.5 µM at ATR.

For orientation: IC50 means the concentration at which inhibition is half-maximal.
